According to publication PMC4457528, “Identification of Novel Small Molecule Inhibitors of Oncogenic RET Kinase” (PLoS ONE, 2015):
Like-named read-outs stand apart in the source and are kept apart here.

How the values were obtained:
Test in all cases: KinomeScan kinase panel, single concentration 10 µM
Format in all cases: binding
KinomeScan kinase panel [1] = target: T1, KinomeScan kinase panel (Homo sapiens, UniProt P43403); settings: kinase ZAP70; 10 µM; read-out: score (%)
T1 construct: purchased DiscoveRx (KinomeScan)
T1 sequence (P43403 1-619): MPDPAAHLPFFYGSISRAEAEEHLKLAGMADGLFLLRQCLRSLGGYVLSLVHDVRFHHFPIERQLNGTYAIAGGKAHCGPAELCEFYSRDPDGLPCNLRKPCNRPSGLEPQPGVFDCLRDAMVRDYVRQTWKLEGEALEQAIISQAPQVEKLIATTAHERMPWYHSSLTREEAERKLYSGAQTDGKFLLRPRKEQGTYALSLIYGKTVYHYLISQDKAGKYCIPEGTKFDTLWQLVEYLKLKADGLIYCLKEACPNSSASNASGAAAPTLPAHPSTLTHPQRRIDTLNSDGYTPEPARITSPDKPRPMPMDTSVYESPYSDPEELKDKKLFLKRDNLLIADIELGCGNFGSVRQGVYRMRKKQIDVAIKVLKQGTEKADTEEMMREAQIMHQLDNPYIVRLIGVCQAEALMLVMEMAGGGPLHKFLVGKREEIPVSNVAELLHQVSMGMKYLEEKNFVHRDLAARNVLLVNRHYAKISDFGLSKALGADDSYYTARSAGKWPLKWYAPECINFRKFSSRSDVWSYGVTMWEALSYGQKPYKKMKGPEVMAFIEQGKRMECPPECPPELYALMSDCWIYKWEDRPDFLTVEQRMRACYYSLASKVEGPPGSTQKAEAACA

KinomeScan kinase panel [2] = target: T2, KinomeScan kinase panel (Homo sapiens, UniProt P54753); settings: EPHB3, 10 µM; read-out: score (%)
T2 construct: purchased DiscoveRx (KinomeScan)
T2 sequence (P54753 34-998): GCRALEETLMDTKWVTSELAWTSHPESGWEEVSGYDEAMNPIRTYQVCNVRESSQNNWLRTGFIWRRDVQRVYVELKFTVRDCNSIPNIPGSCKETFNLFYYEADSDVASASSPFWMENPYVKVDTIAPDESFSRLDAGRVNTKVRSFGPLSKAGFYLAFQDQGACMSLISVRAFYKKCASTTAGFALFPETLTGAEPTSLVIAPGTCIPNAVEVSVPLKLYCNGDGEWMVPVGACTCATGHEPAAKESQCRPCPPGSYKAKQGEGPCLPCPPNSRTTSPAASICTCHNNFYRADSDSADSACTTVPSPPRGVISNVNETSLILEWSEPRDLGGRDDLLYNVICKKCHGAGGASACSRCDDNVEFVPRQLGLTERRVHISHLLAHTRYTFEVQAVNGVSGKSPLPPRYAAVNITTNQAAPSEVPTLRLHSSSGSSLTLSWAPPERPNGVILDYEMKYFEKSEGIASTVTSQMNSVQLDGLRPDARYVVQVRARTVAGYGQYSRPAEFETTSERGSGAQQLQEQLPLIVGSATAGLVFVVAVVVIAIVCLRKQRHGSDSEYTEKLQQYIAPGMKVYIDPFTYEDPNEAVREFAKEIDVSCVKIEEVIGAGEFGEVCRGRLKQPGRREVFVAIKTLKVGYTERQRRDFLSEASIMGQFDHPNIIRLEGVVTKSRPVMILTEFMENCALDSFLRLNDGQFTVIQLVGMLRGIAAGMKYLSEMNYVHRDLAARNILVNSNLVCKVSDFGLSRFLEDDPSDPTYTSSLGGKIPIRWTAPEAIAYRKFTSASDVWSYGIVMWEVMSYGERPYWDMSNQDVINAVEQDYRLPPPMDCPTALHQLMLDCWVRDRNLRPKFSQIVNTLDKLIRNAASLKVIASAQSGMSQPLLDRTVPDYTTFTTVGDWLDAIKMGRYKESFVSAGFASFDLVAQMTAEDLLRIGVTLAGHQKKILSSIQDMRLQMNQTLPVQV

KinomeScan kinase panel [3] = target: T3, KinomeScan kinase panel (Homo sapiens, UniProt Q07912); settings: read-out: score (%)
T3 construct: purchased DiscoveRx (KinomeScan)
T3 sequence (Q07912 whole entry): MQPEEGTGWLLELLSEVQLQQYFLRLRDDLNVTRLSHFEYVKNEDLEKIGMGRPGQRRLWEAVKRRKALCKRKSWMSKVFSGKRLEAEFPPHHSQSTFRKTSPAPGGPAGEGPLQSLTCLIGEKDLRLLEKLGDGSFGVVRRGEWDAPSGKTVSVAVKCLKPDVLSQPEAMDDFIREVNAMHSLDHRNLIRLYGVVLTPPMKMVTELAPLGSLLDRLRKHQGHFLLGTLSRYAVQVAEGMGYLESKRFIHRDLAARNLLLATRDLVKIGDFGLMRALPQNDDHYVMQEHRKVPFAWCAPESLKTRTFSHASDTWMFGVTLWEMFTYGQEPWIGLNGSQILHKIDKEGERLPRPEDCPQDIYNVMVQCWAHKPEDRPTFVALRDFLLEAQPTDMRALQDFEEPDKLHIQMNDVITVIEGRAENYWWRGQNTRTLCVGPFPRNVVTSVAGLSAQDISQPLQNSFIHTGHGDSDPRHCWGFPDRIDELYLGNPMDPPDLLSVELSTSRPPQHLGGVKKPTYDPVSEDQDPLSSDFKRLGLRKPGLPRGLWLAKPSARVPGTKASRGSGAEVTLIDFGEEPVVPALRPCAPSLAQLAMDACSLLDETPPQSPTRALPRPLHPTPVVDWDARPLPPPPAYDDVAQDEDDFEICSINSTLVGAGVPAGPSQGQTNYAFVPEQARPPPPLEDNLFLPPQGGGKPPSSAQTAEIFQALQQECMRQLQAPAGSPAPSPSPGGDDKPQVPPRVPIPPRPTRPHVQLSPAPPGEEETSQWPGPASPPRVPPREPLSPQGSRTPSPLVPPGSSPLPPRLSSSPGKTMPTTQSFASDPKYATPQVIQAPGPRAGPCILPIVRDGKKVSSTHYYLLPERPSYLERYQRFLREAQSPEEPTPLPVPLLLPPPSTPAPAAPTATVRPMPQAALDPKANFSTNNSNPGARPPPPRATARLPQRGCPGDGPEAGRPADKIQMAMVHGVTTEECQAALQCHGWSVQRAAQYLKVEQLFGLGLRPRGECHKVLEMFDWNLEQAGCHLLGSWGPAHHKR

KinomeScan kinase panel [4] = target: T4, KinomeScan kinase panel (Homo sapiens, UniProt Q9NRP7); settings: read-out: score (%)
T4 construct: purchased DiscoveRx (KinomeScan)
T4 sequence (Q9NRP7 1-1315): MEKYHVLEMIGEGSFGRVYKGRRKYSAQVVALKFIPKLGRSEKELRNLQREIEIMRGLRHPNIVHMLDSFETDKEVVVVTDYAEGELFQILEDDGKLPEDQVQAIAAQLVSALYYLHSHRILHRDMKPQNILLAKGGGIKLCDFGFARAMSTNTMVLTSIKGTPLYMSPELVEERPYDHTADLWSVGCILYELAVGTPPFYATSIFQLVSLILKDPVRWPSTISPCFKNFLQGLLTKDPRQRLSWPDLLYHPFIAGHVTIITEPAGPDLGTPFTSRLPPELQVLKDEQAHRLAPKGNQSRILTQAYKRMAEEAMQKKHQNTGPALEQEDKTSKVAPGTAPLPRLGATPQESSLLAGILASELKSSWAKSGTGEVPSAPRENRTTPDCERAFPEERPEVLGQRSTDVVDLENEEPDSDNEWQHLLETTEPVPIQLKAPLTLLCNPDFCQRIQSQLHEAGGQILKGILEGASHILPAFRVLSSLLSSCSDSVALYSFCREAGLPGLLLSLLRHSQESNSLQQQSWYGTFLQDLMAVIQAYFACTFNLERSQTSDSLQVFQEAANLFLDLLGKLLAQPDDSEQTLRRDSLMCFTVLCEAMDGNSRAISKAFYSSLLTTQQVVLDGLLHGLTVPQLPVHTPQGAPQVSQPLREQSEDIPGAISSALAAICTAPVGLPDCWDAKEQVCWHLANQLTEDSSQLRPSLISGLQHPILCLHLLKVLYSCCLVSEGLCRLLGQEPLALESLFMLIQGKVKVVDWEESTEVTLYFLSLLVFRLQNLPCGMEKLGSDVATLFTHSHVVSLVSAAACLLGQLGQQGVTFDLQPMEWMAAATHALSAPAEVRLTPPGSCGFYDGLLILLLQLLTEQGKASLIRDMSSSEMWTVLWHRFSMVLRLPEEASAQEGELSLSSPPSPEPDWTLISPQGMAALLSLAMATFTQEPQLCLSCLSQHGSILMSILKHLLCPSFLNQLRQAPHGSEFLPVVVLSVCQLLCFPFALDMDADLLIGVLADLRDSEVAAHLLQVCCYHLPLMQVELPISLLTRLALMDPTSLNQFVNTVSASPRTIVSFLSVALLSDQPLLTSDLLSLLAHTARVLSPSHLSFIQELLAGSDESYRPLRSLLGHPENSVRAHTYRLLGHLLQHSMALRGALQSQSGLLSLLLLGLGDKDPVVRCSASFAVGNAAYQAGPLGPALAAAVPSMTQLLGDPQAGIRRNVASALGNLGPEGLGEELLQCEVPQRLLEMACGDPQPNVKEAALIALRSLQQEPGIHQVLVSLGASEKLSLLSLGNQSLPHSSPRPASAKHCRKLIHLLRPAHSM

Row | Compound | remaining binding at 10 µM (KinomeScan kinase panel [1]) [%] | remaining binding at 10 µM (KinomeScan kinase panel [2]) [%] | remaining binding at 10 µM (KinomeScan kinase panel [3]; kinase TNK2, 10 µM) [%] | remaining binding at 10 µM (KinomeScan kinase panel [4]; kinase STK36, 10 µM) [%] | remaining binding at 10 µM (KinomeScan kinase panel [3]; TNK2, 10 µM) [%] | remaining binding at 10 µM (KinomeScan kinase panel [4]; STK36, 10 µM) [%]
1 | CCN1CCN(Cc2ccc(NC(=O)c3ccc(C)c(NC(=O)c4cncc(-c5cccs5)c4)c3)cc2C(F)(F)F)CC1 [ALW-II-41-27] | > 30 | 0.3 | 2.1 | 0.2 | – | –
2 | CCN1CCN(Cc2ccc(NC(=O)c3ccc(C)c(/C=C/c4cnc5[nH]ccc5c4Cl)c3)cc2C(F)(F)F)CC1 [HG-6-63-01, (E)-3-(2-(4-chloro-1H-pyrrolo[2,3-b]pyridin-5-yl)vinyl)-N-(4-((4-ethylpiperazin-1-yl)methyl)-3-(trifluoromethyl)phenyl)-4-methylbenzamide] | > 30 | 11 | – | – | 0.5 | 0.05
3 | CCN1CCN(Cc2ccc(NC(=O)c3ccc(C)c(C#Cc4cccnc4)c3)cc2C(F)(F)F)CC1 [XMD15-44] | 62 | 0.25 | 11 | 0.4 | – | –
